Assay results from ChEMBL document CHEMBL1909046, “DrugMatrix in vitro pharmacology data”.
pIC50, pKi: −log10 of the molar value.

Columns and labels:
[1] = DRUGMATRIX: Calcium Channel Type L, Dihydropyridine radioligand binding (ligand: [3H] Nitrendipine); format: cell membranes, Rattus norvegicus, Wistar, Cerebral cortex, Membrane; settings: Not Active = under 50% inhibition at 10 µM; for pIC50: read-out: IC50; for pKi: read-out: Ki
[2] = target: Sigma non-opioid intracellular receptor 1 (Homo sapiens, UniProt Q99720); assay: DRUGMATRIX: Sigma1 radioligand binding (ligand: [3H] Haloperidol); format: cell membranes, Jurkat, Membrane; settings: Not Active = under 50% inhibition at 10 µM; for pIC50: read-out: IC50; for pKi: read-out: Ki; for IC50: jurkat
Sigma non-opioid intracellular receptor 1, sequence (Q99720 whole entry): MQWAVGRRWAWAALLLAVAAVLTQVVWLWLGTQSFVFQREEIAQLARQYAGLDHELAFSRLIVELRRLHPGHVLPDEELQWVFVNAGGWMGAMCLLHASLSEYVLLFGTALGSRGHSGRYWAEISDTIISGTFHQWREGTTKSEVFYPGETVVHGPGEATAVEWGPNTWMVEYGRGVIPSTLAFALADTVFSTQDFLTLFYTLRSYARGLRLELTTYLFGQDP

[3] = target: T1, Vasoactive intestinal polypeptide receptor 1 (Homo sapiens, UniProt P32241); format: cell membranes, Membrane; settings: ht-29; also: in other assays of this panel Not Active means under 50% inhibition at 10 µM
T1 sequence (P32241 whole entry): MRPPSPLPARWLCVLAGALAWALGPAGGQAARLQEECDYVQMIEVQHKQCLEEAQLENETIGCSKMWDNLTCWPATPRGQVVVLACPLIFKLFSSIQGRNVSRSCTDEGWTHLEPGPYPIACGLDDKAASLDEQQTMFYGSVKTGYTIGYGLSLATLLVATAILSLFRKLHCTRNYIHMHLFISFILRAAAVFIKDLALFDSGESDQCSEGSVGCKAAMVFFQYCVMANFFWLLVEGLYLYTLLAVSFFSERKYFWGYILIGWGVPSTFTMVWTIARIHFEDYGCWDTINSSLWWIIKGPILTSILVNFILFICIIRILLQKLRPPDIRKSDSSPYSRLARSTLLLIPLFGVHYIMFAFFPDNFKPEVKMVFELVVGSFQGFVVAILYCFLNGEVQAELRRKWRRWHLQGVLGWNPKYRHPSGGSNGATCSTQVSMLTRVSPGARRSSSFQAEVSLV

[4] = target: Prostaglandin G/H synthase 1 (Homo sapiens, UniProt P23219); assay: biochemical; format: tissue-based, Platelet; settings: for IC50: platelet;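 as to all read-outs here: inhibition of COX-1 enzyme activity, with arachidonic acid supplied as substrate; in other assays of this panel Not Active means under 50% inhibition at 10 µM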
Prostaglandin G/H synthase 1, sequence (P23219 whole entry): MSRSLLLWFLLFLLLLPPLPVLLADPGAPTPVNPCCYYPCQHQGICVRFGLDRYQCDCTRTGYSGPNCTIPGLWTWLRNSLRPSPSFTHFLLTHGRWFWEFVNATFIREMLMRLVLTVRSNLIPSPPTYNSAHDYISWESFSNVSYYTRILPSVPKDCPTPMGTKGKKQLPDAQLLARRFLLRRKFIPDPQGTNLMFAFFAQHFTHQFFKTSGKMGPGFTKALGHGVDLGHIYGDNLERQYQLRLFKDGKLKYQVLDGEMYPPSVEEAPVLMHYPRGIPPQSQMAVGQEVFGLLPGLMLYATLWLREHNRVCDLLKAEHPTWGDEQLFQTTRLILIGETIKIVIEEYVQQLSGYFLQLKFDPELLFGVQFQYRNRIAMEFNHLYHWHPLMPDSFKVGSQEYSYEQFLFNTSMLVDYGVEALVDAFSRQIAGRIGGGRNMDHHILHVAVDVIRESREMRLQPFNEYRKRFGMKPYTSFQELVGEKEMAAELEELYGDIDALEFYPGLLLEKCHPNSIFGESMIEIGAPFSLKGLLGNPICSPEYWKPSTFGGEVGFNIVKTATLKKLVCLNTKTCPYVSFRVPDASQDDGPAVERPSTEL

[5] = target: Mitogen-activated protein kinase 14 (Homo sapiens, UniProt Q16539); set-up: species or system Escherichia coli;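 also: inhibition of p38alpha enzyme activity in a biochemical kinase assay, with myelin basic protein serving as substrate; in other assays of this panel Not Active means under 50% inhibition at 10 µM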
Mitogen-activated protein kinase 14, sequence (Q16539 whole entry): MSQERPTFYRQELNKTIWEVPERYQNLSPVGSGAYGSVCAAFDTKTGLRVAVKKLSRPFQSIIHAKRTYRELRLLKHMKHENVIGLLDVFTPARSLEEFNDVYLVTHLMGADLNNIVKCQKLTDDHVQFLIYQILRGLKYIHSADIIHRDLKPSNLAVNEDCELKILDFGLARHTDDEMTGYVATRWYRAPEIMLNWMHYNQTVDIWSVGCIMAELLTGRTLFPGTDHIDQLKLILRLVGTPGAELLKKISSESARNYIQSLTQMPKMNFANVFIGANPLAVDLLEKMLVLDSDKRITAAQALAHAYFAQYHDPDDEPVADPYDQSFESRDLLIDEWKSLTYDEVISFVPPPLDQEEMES

[6] = target: Tyrosine-protein kinase Fyn (Homo sapiens, UniProt P06241); assay: biochemical; format: cell-based, Insect cells; settings: for pIC50: read-out: IC50; for IC50: insect cells;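 as to all read-outs here: enzymatic inhibition of Fyn kinase activity measured with Poly(Glu:Tyr) as the phosphorylation substrate; in other assays of this panel Not Active means under 50% inhibition at 10 µM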
Tyrosine-protein kinase Fyn, sequence (P06241 whole entry): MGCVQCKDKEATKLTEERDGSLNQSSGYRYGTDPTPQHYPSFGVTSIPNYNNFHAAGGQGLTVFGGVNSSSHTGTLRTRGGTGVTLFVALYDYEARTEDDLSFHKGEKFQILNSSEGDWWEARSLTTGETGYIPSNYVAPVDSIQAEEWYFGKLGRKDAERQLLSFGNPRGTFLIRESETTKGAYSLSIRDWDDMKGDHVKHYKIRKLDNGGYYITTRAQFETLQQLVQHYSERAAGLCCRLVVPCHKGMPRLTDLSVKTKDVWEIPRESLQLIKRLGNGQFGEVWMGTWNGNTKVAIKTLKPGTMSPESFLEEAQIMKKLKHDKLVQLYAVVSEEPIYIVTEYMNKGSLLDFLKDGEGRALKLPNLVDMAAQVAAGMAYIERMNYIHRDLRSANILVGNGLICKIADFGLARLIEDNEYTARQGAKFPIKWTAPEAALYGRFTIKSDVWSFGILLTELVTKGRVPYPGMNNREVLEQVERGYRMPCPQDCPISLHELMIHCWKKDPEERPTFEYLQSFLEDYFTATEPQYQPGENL

| Structure (SMILES) | IC50 [1] | Ki [1] | pIC50 [2] | pKi [2] | IC50 [3] | IC50 [4] | pIC50 ([5]; read-out: IC50) | pIC50 [6] | IC50 [2] | IC50 [5] | IC50 [6] | pIC50 [1] | pKi [1] | pIC50 ([4]; read-out: IC50) |
| --- | --- | --- | --- | --- | --- | --- | --- | --- | --- | --- | --- | --- | --- | --- |
| CC#C[C@]1(O)CC[C@H]2[C@@H]3CCC4=CC(=O)CCC4=C3[C@@H](c3ccc(N(C)C)cc3)C[C@@]21C [MIFEPRISTONE] | Not Active | Not Active | 4.58 | 4.96 | Not Active | Not Active | 4.08 | 4.67 | – | – | – | – | – | – |
| CC[C@@]1(O)C(=O)OCc2c1cc1n(c2=O)Cc2cc3c(CN(C)C)c(O)ccc3nc2-1 [TOPOTECAN] | Not Active | Not Active | – | – | Not Active | Not Active | – | – | Not Active | Not Active | Not Active | – | – | – |
| Nc1nc(N)c2nc(-c3ccccc3)c(N)nc2n1 | Not Active | Not Active | – | – | Not Active | Not Active | – | – | Not Active | Not Active | Not Active | – | – | – |
| Cc1cc2c(s1)Nc1ccccc1N=C2N1CCN(C)CC1 [OLANZAPINE] | – | – | – | – | Not Active | Not Active | – | – | Not Active | Not Active | Not Active | – | – | – |
| CC[C@H](C)[C@@H](CO[C@@H](Cc1ccccc1)C(=O)N[C@@H](CCS(C)(=O)=O)C(=O)OC(C)C)NC[C@@H](N)CS | – | – | – | – | Not Active | Not Active | – | 6.09 | Not Active | Not Active | – | 5.35 | 5.54 | – |
| CO[C@@]12[C@H](COC(N)=O)C3=C(C(=O)C(C)=C(N)C3=O)N1C[C@@H]1N[C@@H]12 [MITOMYCIN] | Not Active | Not Active | – | – | Not Active | Not Active | – | – | Not Active | Not Active | Not Active | – | – | – |
| CCOC(=O)C1=C(C)NC(C)=C(C(=O)OCC)C1c1ccccc1/C=C/C(=O)OC(C)(C)C [LACIDIPINE] | – | – | – | – | Not Active | Not Active | – | – | Not Active | Not Active | Not Active | 9.40 | 9.59 | – |
| Cc1cn([C@H]2C=C[C@@H](CO)O2)c(=O)[nH]c1=O [STAVUDINE] | Not Active | Not Active | – | – | Not Active | Not Active | – | – | Not Active | Not Active | Not Active | – | – | – |
| C#C[C@]1(O)CC[C@H]2[C@@H]3[C@H](C)CC4=C(CCC(=O)C4)[C@H]3CC[C@@]21C [TIBOLONE] | Not Active | Not Active | – | – | Not Active | Not Active | – | – | Not Active | Not Active | Not Active | – | – | – |
| CC(O)C(=O)O (stereo not drawn) [LACTIC ACID] | Not Active | Not Active | – | – | Not Active | Not Active | – | – | Not Active | Not Active | Not Active | – | – | – |
| O=C(O)c1cc(/N=N/c2ccc(S(=O)(=O)Nc3ccccn3)cc2)ccc1O [SULFASALAZINE] | Not Active | Not Active | – | – | Not Active | Not Active | – | – | Not Active | Not Active | Not Active | – | – | – |
| CCN(CC)C(=S)SSC(=S)N(CC)CC | Not Active | Not Active | – | – | Not Active | Not Active | – | – | Not Active | Not Active | Not Active | – | – | – |
| CNCCCC12CCC(c3ccccc31)c1ccccc12 [MAPROTILINE] | – | – | – | – | Not Active | Not Active | – | – | Not Active | Not Active | Not Active | – | – | – |
| Cc1ccc(Cl)c(Nc2ccccc2C(=O)O)c1Cl [MECLOFENAMIC ACID] | Not Active | Not Active | – | – | Not Active | – | – | – | Not Active | Not Active | Not Active | – | – | 6.69 |
| CC(C)(C)NC[C@H](O)COc1cccc2c1CCCC2=O [LEVOBUNOLOL] | Not Active | Not Active | 6.11 | 6.49 | Not Active | Not Active | – | – | – | Not Active | Not Active | – | – | – |
| Cc1cccc(C)c1NC(=O)C(C)N (stereo not drawn) [TOCAINIDE] | Not Active | Not Active | – | – | Not Active | Not Active | – | – | Not Active | Not Active | Not Active | – | – | – |
| CCOc1cc(N)c(Cl)cc1C(=O)NCC1CN(Cc2ccc(F)cc2)CCO1 (stereo not drawn) [MOSAPRIDE] | Not Active | Not Active | 6.51 | 6.89 | Not Active | Not Active | – | – | – | Not Active | Not Active | – | – | – |
